According to patent US20250099423A1, “PIPERAZINE-BASED AGONISTS OF LFA-1 AND VLA-4” (Texas Heart Institute, priority 2021, published 2025):

Tests used:
α4β1/VCAM-1 = target: T1, α4β1/VCAM-1 (Homo sapiens, UniProt P05556+P13612); assay: Static cell adhesion assay, Jurkat cells on VCAM-1 (α4β1/VCAM-1); format: cell-based; conditions: ratio compound activity/control THI0019 (average 33 μM) run on the same plate
T1 construct: The Jurkat (VCAM-1 assays) and HSB (ICAM-1 assays) cell lines were obtained from American Type Culture Collection; endogenous in cells; host or cells: Jurkat cells (ATCC)
Experimental: (§1) For in vitro cell adhesion assays, compounds were dissolved in DMSO to make a series of stock solutions such that a 1:100 dilution in assay buffer would yield the desired final working concentrations in 1% DMSO (vehicle). Human VCAM-1 and ICAM-1 were purchased from R&D Systems (Minneapolis, MN). The Jurkat (VCAM-1 assays) and HSB (ICAM-1 assays) cell lines were obtained from American Type Culture Collection (Manassas, VA) and were maintained in recommended culture media.
(§2) Assays were performed as previously described in 1. Vanderslice, P., Woodside, D. G., Caivano, A. R., Decker, E. R., Munsch, C. L., Sherwood, S. J., Lejeune, W. S., Miyamoto, Y. J., McIntyre, B. W., Tilton, R. G., and Dixon, R. A. (2010) Potent in vivo suppression of inflammation by selectively targeting the high affinity conformation of integrin alpha4beta1. Biochem Biophys Res Commun 400, 619-624; and 2. Vanderslice, P., Biediger, R. J., Woodside, D. G., Brown, W. S., Khounlo, S., Warier, N. D., Gundlach, C. W. t., Caivano, A. R., Bornmann, W. G., Maxwell, D. S., McIntyre, B. W., Willerson, J. T., and Dixon, R. A. (2013) Small molecule agonist of very late antigen-4 (VLA-4) integrin induces progenitor cell adhesion. J Biol Chem 288, 19414-19428. VCAM-1 or ICAM-1 ligand in 50 μL of 50 mM Tris-HCl (pH 7.4), 150 mM NaCl, (TBS) was added to wells of a 96-well plate and allowed to coat overnight at 4° C. To maximize the window to evaluate agonist activity, a sub-optimal coating concentration of ligand was used, typically between 0.5 and 5 μg/mL in 50 μL TBS for VCAM-1 and ICAM-1 respectively. This ligand concentration corresponded approximately to that which would yield≤ 5% adhesion as determined by dose-response curves. Briefly, 2×10^6 cells were labeled for 30 minutes with calcein-AM (Molecular Probes), washed, resuspended in binding buffer, and added to triplicate wells of ligand-coated plates (2×10^5 cells/well) that had been blocked with 2% BSA. After a 30-minute incubation at 37° C., the plates were washed 3 times with binding buffer, the adherent cells were lysed, and fluorescence was measured on a Tecan Safire^2 plate reader. The binding buffer was PBS with 1 mM MgCl2, 50% FBS for α4β1/VCAM-1 assays and PBS with 2 mM MgCl2, 5 mM EGTA, 50% FBS for αLβ2/ICAM-1 assays. EC50 is defined as the concentration of compound required to achieve 50% of the maximal response.

LFA-1 = target: T2, LFA-1 (Homo sapiens, UniProt P05107+P20701); assay: Static cell adhesion assay, HSB cells on ICAM-1 (αLβ2/ICAM-1; LFA-1); format: cell-based; conditions: Dose 3 μM, compound and THI0349 at the same concentration; ratio >1 = more potent agonist
T2 construct: The Jurkat (VCAM-1 assays) and HSB (ICAM-1 assays) cell lines were obtained from American Type Culture Collection; endogenous in cells; host or cells: HSB cells (ATCC)
Experimental: as §1, §2
THI0019 and THI0349 (average 11 μM) reported values here were obtained under the assay conditions reported herein and ran higher in the presence of serum than those values under different assay conditions. […] Relative to THI0019 (average 33 μM) as a control against CS1, the ratio of (compound activity/control) is as follows: Group I< or =1. Group II at least a ratio of >1 up to 2× that of THI0019 ran on the same plate; Group III is >2× of THI0019 but less than 5×; and Group IV>5× of THI0019 (with an upper limit of approximately 200 mM). In relation to LAD (Leukocyte Adhesion Deficiency), LFA-1 ratios are determined by dividing the relative fluorescence units (RFU) of each compound over that of the reference standard of THI0349, (RFU Compound/RFU of THI0349). Against LFA-1, the signal for THI0349 at 3 μM was compared to the claimed compounds at the same concentration.

T1 sequence (P13612 34-1032): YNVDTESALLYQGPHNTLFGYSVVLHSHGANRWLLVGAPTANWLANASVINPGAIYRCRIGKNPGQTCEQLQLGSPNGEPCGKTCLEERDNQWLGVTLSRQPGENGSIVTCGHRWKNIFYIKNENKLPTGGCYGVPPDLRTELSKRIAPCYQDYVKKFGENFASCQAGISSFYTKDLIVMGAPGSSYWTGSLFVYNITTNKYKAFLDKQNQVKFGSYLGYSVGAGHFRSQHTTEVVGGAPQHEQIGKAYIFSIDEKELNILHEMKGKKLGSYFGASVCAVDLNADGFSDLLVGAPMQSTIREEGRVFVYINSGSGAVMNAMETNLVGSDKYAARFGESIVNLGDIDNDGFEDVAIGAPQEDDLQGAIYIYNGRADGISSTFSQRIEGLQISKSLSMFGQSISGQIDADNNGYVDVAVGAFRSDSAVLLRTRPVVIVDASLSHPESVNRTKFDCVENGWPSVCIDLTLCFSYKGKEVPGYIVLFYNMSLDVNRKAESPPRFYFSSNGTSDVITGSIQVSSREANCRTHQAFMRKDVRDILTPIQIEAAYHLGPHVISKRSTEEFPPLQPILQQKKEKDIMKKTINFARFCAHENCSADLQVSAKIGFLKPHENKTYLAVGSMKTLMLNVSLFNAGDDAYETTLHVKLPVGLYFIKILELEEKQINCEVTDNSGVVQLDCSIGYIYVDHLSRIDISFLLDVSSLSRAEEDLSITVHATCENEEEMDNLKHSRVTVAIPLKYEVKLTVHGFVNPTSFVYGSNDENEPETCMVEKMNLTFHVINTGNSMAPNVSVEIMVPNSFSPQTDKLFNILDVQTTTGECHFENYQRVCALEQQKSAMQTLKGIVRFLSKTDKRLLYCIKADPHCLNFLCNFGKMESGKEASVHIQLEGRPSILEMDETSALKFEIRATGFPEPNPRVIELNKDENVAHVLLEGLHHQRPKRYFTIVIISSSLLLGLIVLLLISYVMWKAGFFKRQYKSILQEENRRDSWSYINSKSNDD
T1 sequence (P05556 21-798): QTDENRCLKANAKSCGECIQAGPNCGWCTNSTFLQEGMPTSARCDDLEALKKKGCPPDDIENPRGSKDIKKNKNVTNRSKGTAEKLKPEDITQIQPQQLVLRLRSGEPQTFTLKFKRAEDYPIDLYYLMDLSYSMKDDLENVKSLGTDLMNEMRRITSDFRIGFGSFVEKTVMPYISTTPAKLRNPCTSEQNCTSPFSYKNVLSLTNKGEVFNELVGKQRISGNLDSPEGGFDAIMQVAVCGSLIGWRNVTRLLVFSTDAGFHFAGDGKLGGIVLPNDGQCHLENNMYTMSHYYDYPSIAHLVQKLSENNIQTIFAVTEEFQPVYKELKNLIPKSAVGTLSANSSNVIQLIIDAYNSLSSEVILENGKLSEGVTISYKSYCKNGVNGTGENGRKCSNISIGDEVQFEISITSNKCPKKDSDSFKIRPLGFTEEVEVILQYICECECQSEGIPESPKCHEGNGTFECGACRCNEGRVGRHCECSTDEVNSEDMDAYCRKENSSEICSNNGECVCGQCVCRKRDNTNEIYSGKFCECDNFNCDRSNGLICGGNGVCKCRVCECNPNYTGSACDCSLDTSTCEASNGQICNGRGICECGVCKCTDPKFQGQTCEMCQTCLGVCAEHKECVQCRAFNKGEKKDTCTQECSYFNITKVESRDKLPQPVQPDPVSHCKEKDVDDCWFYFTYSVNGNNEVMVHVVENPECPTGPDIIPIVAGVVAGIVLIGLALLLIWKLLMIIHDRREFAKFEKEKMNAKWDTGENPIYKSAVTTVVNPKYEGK
T2 sequence (P20701 26-1170): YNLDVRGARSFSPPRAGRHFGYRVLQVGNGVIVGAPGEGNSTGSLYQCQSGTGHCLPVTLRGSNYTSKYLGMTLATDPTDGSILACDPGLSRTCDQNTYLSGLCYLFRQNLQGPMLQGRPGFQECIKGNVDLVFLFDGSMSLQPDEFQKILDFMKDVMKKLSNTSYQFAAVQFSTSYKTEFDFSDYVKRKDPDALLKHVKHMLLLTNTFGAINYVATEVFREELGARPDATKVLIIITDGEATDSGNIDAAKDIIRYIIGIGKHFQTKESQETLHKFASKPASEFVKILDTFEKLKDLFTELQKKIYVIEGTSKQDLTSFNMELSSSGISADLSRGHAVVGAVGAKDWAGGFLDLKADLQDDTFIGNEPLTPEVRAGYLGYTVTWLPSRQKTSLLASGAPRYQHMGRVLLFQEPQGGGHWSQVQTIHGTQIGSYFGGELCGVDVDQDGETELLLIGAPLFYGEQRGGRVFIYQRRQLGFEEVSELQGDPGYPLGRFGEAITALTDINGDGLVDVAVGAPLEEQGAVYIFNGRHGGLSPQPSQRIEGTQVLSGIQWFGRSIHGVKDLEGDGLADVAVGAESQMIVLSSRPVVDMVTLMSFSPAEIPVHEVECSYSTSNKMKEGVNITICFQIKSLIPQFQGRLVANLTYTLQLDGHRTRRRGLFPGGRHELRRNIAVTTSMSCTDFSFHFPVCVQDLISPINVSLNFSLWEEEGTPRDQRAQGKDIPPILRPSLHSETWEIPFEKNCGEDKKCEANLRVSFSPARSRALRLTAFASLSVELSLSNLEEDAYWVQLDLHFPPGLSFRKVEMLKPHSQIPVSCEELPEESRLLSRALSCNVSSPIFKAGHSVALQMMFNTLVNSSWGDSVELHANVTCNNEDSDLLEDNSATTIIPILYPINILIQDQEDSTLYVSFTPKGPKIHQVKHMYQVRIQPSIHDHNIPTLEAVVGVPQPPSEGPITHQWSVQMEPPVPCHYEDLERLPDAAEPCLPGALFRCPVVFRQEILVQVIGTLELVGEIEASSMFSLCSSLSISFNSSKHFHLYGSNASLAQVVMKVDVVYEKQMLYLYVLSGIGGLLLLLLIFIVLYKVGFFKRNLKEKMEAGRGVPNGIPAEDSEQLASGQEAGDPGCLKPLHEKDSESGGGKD
T2 sequence (P05107 23-769): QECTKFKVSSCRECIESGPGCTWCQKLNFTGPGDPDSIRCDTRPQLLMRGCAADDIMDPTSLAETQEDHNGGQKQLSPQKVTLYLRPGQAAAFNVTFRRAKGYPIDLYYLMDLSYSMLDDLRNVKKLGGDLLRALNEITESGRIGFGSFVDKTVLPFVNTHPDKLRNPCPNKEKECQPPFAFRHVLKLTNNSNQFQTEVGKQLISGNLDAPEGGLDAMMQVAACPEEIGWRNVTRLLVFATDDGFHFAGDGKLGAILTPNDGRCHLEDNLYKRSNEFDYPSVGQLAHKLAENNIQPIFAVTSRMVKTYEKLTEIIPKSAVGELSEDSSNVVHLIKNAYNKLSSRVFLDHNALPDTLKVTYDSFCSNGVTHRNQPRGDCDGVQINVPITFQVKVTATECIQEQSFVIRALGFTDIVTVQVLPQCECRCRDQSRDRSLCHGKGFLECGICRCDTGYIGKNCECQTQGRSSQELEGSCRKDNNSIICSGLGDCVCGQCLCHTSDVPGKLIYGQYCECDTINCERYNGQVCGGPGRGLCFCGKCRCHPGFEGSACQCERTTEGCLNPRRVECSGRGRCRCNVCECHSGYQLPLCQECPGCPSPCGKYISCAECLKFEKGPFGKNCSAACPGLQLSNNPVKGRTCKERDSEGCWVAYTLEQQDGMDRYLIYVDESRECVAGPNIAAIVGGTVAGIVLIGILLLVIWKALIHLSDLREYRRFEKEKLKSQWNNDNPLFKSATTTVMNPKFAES

| SMILES | LAD Raw Fluorescence Units against LFA-1; Ratio of raw counts Compound/THI0349 (LFA-1) | Average Ratio Compound to THI0019 (Activity against CS1) (α4β1/VCAM-1) |
| --- | --- | --- |
| COc1ccc(CN(Cc2cccc(N(C)C)c2)C(=O)CN2CC(=O)N(CC(=O)N(Cc3ccc(OC)cc3)Cc3cccc(N(C)C)c3)CC2=O)cc1 | – | Group II (Group II at least a ratio of >1 up to 2× that of THI0019 ran on the same plate) |
| CN(C)c1ccc(CN(Cc2ccc(N(C)C)cc2)C(=O)CN2CC(=O)N(CC(=O)N(Cc3ccc(N(C)C)cc3)Cc3ccc(N(C)C)cc3)CC2=O)cc1 [2,2′-(2,5-dioxopiperazine-1,4-diyl)bis(N,N-bis(4-(dimethylamino)benzyl)acetamide)] | – | Group I (Group I< or =1) |
| COc1ccc(CN(Cc2ccc(N(C)C)cc2)C(=O)CN2CCN(C(=O)OCc3ccccc3)CC2)cc1 [benzyl 4-(2-((4-(dimethylamino)benzyl)(4-methoxybenzyl)amino)-2-oxoethyl)piperazine-1-carboxylate] | 1.2 fold increased response | Group III (Group III is >2× of THI0019 but less than 5×) |
| COc1ccc(CN(Cc2ccc(OC)cc2)C(=O)CN2CCN(Cc3cccc(OC)c3)CC2=O)cc1 [N,N-bis(4-methoxybenzyl)-2-(4-(3-methoxybenzyl)-2-oxopiperazin-1-yl)acetamide] | 1.1 fold increased response | Group IV (Group IV>5× of THI0019 (with an upper limit of approximately 200 mM)) |
| COc1ccc(CN(Cc2ccc(OC)cc2)C(=O)CN2CCN(CC(=O)N(Cc3ccc(OC)cc3)Cc3ccc(OC)cc3)C(=O)C2)cc1 [2,2′-(2-oxopiperazine-1,4-diyl)bis(N,N-bis(4-methoxybenzyl)acetamide)] | 5.9 fold increased response | Group I (Group I< or =1) |
| COc1cccc(CN(Cc2cccc(OC)c2)C(=O)CN2CC(=O)N(CC(=O)N(Cc3cccc(OC)c3)Cc3cccc(OC)c3)CC2=O)c1 [2,2′-(2,5-dioxopiperazine-1,4-diyl)bis(N,N-bis(3-methoxybenzyl)acetamide)] | – | Group I (Group I< or =1) |
| COc1ccc(CN(Cc2ccc(N(C)C)cc2)C(=O)CN2CCN(C(=O)OCc3cccc(OC)c3)CC2=O)cc1 [3-methoxybenzyl 4-(2-((4-(dimethylamino)benzyl)(4-methoxybenzyl)amino)-2-oxoethyl)-3-oxopiperazine-1-carboxylate] | 4.2 fold increased response | Group II (Group II at least a ratio of >1 up to 2× that of THI0019 ran on the same plate) |
| O=C(CN1CCN(C(=O)OCc2ccccc2)CC1)N(Cc1ccc(O)cc1)Cc1ccc(O)cc1 [benzyl 4-(2-(bis(4-hydroxybenzyl)amino)-2-oxoethyl)piperazine-1-carboxylate] | 0.3 fold response | Group I (Group I< or =1) |
| COc1ccc(CCOC(=O)N2CCN(CC(=O)N(Cc3ccc(OC)cc3)Cc3ccc(OC)cc3)CC2)cc1 [4-methoxyphenethyl 4-(2-(bis(4-methoxybenzyl)amino)-2-oxoethyl)piperazine-1-carboxylate] | 4.6 fold increased response | Group II (Group II at least a ratio of >1 up to 2× that of THI0019 ran on the same plate) |
| COc1ccc(CN(Cc2ccc(N(C)C)cc2)C(=O)CN2CCN(C(=O)c3cccc(OC)c3)CC2=O)cc1 [N-(4-(dimethylamino)benzyl)-2-(4-(3-methoxybenzoyl)-2-oxopiperazin-1-yl)-N-(4-methoxybenzyl)acetamide] | 1.2 fold increased response | Group IV (Group IV>5× of THI0019 (with an upper limit of approximately 200 mM)) |
| O=C1CN(CC(=O)N(Cc2cccs2)Cc2cccs2)C(=O)CN1CC(=O)N(Cc1cccs1)Cc1cccs1 [2,2′-(2,5-dioxopiperazine-1,4-diyl)bis(N,N-bis(thiophen-2-ylmethyl)acetamide)] | – | Group III (Group III is >2× of THI0019 but less than 5×) |
| COc1ccc(CN(Cc2ccc(OC)cc2)C(=O)CN2CCN(CC(=O)N(Cc3ccc(OC)cc3)Cc3ccc(OC)cc3)CC2)cc1 [2,2′-(piperazine-1,4-diyl)bis(N,N-bis(4-methoxybenzyl)acetamide)] | – | Group I (Group I< or =1) |

Second part, led by results:

| LAD Raw Fluorescence Units against LFA-1; Ratio of raw counts Compound/THI0349 (LFA-1) | SMILES | Average Ratio Compound to THI0019 (Activity against CS1) (α4β1/VCAM-1) |
| --- | --- | --- |
| 2.2 fold increased response | COc1ccc(CN(Cc2ccc(OC)cc2)C(=O)CN2CCN(C(=O)OCc3cccc(OC)c3)CC2)cc1 [3-methoxybenzyl 4-(2-(bis(4-methoxybenzyl)amino)-2-oxoethyl)piperazine-1-carboxylate] | Group II (Group II at least a ratio of >1 up to 2× that of THI0019 ran on the same plate) |
| 0.9 fold response | COc1ccc(CN(CC(C)C)C(=O)CN2CCN(CC(=O)N(Cc3ccc(OC)cc3)CC(C)C)CC2)cc1 [2,2′-(piperazine-1,4-diyl)bis(N-isobutyl-N-(4-methoxybenzyl)acetamide)] | Group IV (Group IV>5× of THI0019 (with an upper limit of approximately 200 mM)) |
| 9.9 fold increased response | COc1ccc(CN(Cc2ccc(N(C)C)cc2)C(=O)OCCN2CC(=O)N(CCOC(=O)N(Cc3ccc(OC)cc3)Cc3ccc(N(C)C)cc3)CC2=O)cc1 [(2,5-dioxopiperazine-1,4-diyl)bis(ethane-2,1-diyl) bis(4-(dimethylamino)benzyl (4-methoxybenzyl)carbamate)] | Group I (Group I< or =1) |
| 1.42 fold increased response | COc1cccc(CN(Cc2cccc(OC)c2)C(=O)CN2CCN(C(=O)OCc3ccccc3)CC2)c1 [benzyl 4-(2-(bis(3-methoxybenzyl)amino)-2-oxoethyl)piperazine-1-carboxylate] | Group I (Group I< or =1) |
| 1.3 fold increased response | COc1ccc(CN(Cc2ccc(O)cc2)C(=O)CN2CCN(C(=O)OCc3ccccc3)CC2)cc1 [benzyl 4-(2-((4-hydroxybenzyl)(4-methoxybenzyl)amino)-2-oxoethyl)piperazine-1-carboxylate] | Group II (Group II at least a ratio of >1 up to 2× that of THI0019 ran on the same plate) |
| 4.7 fold increased response | COc1cccc(CN(Cc2cccc(OC)c2)C(=O)OCCN2CCN(CCOC(=O)N(Cc3cccc(OC)c3)Cc3cccc(OC)c3)CC2)c1 [piperazine-1,4-diylbis(ethane-2,1-diyl) bis(bis(3-methoxybenzyl)carbamate)] | Group I (Group I< or =1) |
| 3 fold increased response | COc1ccc(CN(Cc2ccc(OC)cc2)C(=O)CCCN2CCN(C(=O)OCc3ccccc3)CC2)cc1 [benzyl 4-(4-(bis(4-methoxybenzyl)amino)-4-oxobutyl)piperazine-1-carboxylate] | Group I (Group I< or =1) |
